Measured values reported in EP2198709A1, “Method for treating resistant animal pests” (Bayer CropScience AG, priority 2008, dated 2010).

Key:
Format in all cases: in vivo
[1] = tested on: Nymphen von Bemisia tabaci; assay: Field trial on aubergine plants, drench, against nymphs of neonicotinoid-resistant whiteflies (Almeria); conditions: drenched 3x, 150 g ai/ha/m CH, I-5 SL 300, Imidacloprid SL 200
Source text: In Almeria (Südspanien) wurden Auberginenpflanzen, die stark mit Nymphen von bekanntermaßen Neonikotinoyl-resistenten weißen Fliegen (Bemisia tabaci) infiziert waren, jeweils drei Mal im Abstand von 9 und 12 Tagen mit der Verbindung I-5 (SL 300, 150 g ai/ha/m CH (g aktive Substanz/ha/m CH, CH = Laubwand-Höhe) bzw. mit Imidacloprid (SL 200, 150 g ai/ha/m CH) gegossen. Zu verschiedenen Zeitpunkten nach der dritten Behandlung (DAC = Tage nach 3. Behandlung) wurde die Wirksamkeit (in % Abbott: Verhältnis der Anzahl Nymphen auf behandelter Pflanze / Fläche zur Anzahl Nymphen auf Kontrolle) der beiden Substanzen gegen Nymphen von Bemisia tabaci in bestimmt.

[2] = tested on: Nymphen von Bemisia tabaci; assay: Field trial on pepper plants, spray, against nymphs of neonicotinoid-resistant whiteflies (Almeria); conditions: sprayed 3x, 150 g ai/ha/m CH, I-5 SL 200, Imidacloprid OD 200
Source text: In Almeria (Südspanien) wurden Paprikapflanzen, die sehr stark mit Nymphen von bekanntermaßen Neonikotinoyl-resistenten Weißen Fliegen (Bemisia tabaci) infiziert waren, jeweils drei Mal im Abstand von 9 und 12 Tagen mit der Verbindung I-5 (SL 200, 150 g ai/ha/m CH (g aktive Substanz/ha/m CH, CH = Laubwand-Höhe) bzw. mit Imidacloprid (OD 200, 150 g ai/ha/m CH) besprüht. Zu verschiedenen Zeitpunkten nach der dritten Behandlung (DAC = Tage nach 3. Behandlung) wurde die Wirksamkeit (in % Abbott: Verhältnis der Anzahl Nymphen auf behandelter Pflanze / Fläche zur Anzahl Nymphen auf Kontrolle) der beiden Substanzen gegen Nymphen von Bemisia tabaci in bestimmt.

[3] = tested on: Nymphen von Bemisia tabaci; assay: Field trial on cotton plants, spray, against nymphs of neonicotinoid-resistant whiteflies (Brenes); conditions: sprayed 2x, 150 g ai/ha/m CH, I-5 SL 100, Imidacloprid SL 200
Source text: In Brenes (Spanien) wurden Baumwollpflanzen, die stark mit Nymphen von bekanntermaßen Neonikotinoyl-resistenten Weißen Fliegen (Bemisia tabaci) infiziert waren, jeweils zwei Mal im Abstand von 13 Tagen mit der Verbindung I-5 (SL 100, 150 g ai/ha/m CH (g aktive Substanz/ha/m CH, CH = Laubwand-Höhe) bzw. mit Imidacloprid (SL 200, 150 g ai/ha/m CH) besprüht. Zu verschiedenen Zeitpunkten nach der ersten bzw. zweiten Behandlung (DAA = Tage nach 1. Behandlung, DAB = Tage nach zweiter Behandlung) wurde die Wirksamkeit (in % Abbott: Verhältnis der Anzahl Nymphen auf behandelter Pflanze / Fläche zur Anzahl Nymphen auf Kontrolle) der beiden Substanzen gegen Nymphen von Bemisia tabaci in bestimmt.

[4] = 7 DAC (days after 3rd treatment)

Compound | Effizienz ([1]; 7 DAC) | Effizienz ([1]; 14 DAC) | Effizienz ([1]; 21 DAC) | Effizienz [2, 4] | Effizienz ([2]; 14 DAC) | Effizienz ([2]; 21 DAC) | Effizienz ([2]; 28 DAC) | Effizienz ([3]; 13 DAB) | Effizienz ([3]; 15 DAB) | Effizienz ([3]; 25 DAB) | Effizienz ([3]; 36 DAB)
O=[N+]([O-])NC1=NCCN1Cc1ccc(Cl)nc1 [Imidacloprid] | 41 % Abbott | 50,7 % Abbott | 21 % Abbott | 76,7 % Abbott | 75,3 % Abbott | 75,1 % Abbott | 1,3 % Abbott | 60 % Abbott | 56,9 % Abbott | 42,1 % Abbott | 24,3 % Abbott
O=C1C=C(N(Cc2ccc(Cl)nc2)CC(F)F)CO1 [Verbindung I-5, 4-{[(6-Chlorpyrid-3-yl)methyl](2,2-difluorethyl)amino}furan-2(5H)-on] | 79,1 % Abbott | 63,7 % Abbott | 66,8 % Abbott | 99,2 % Abbott | 98,5 % Abbott | 97,4 % Abbott | 84,3 % Abbott | 78,9 % Abbott | 63,5 % Abbott | 77,8 % Abbott | 70,8 % Abbott
